Results as given in patent US12338263B2, “Antibacterial aminoglycoside derivatives” (priority 2019, dated 2025).
In brackets after ≈: the same amount, converted by molar mass. Like-named read-outs stand apart in the source and are kept apart here.

Columns and labels:
Assay in all cases: Antibacterial effect (MIC), micro-liquid dilution method (CLSI)
Format in all cases: cell-based
[1] = tested on: K. pneumoniae ATCC BAA-1705; details: Klebsiella pneumoniae, ATCCBAA1705
Protocol: (§1) Three strains Enterobacteriaceae E. coli ATCC 25922, E. coli ATCC BAA-2523, K. pneumonia ATCC BAA-1705 were used to determine the Minimum Inhibitory Concentration (MIC) of each compound by the micro-liquid dilution method according to the requirements of the Institute of Clinical and Laboratory Standard (CLSI). 2-fold series diluted compounds (with a final concentration range […]) were added to a round bottom 96-well plate (Catalog #3788, Corning). A single clone of fresh bacteria on the plate of Mueller Hinton II Agar (MHA, Cat. No. 211438, BD BBL™) after overnight culture was picked and suspended in sterile saline to adjust the concentration to 1×10^8 CFU/mL, and then diluted to 5×10^5 CFU/mL by Cation-Adjusted Mueller Hinton II Broth (MHB, Catalog #212332, BD BBL™), 100 μL of which was added to the round bottom 96-well plate containing the drug. The plate was inverted and incubated at 37° C. for 20-24 hours, and the MIC value was read. The lowest drug concentration that inhibits bacterial growth was defined as MIC.

E. coli ATCC 25922 = details: Escherichia coli, ATCC25922
Protocol: as §1

E. coli ATCC BAA-2523 = details: Escherichia coli, ATCCBAA2523
Protocol: as §1

SMILES	MIC [1] [µM]	MIC (E. coli ATCC 25922) [µM]	MIC (E. coli ATCC BAA-2523) [µM]	MIC ([1]; K. pneumoniae ATCC BAA-1705, 37° C., 20-24 hours, read-out: MIC) [µM]	MIC (E. coli ATCC 25922; E. coli ATCC 25922, 37° C., 20-24 hours, read-out: MIC) [µM]	MIC (E. coli ATCC BAA-2523; E. coli ATCC BAA-2523, 37° C., 20-24 hours, read-out: MIC) [µM]
CN[C@@H]1[C@@H](O)[C@@H](O[C@@H]2[C@@H](O)[C@H](O[C@H]3OC(CNCCCONC(=N)N)=CC[C@H]3N)[C@@H](N)C[C@H]2NC(=O)[C@@H](O)CCN)OC[C@]1(C)O [Compound 3]	0.25 (≈ 0.166 µg/mL)	0.5 (≈ 0.332 µg/mL)	1 (≈ 0.664 µg/mL)	–	–	–
CN[C@@H]1[C@@H](O)[C@@H](O[C@@H]2[C@@H](O)[C@H](O[C@H]3OC(CNCCOCCONC(=N)NCC(F)F)=CC[C@H]3N)[C@@H](N)C[C@H]2NC(=O)[C@@H](O)CCN)OC[C@]1(C)O [Compound 2]	–	–	–	4 (≈ 3.03 µg/mL)	2 (≈ 1.52 µg/mL)	4 (≈ 3.03 µg/mL)
